Measurements published in patent US20150050299A1, “METHODS FOR ENHANCING IMMUNE RESPONSE” (priority 2010, published 2015).

Columns and labels:
[1] = test system: squamous cell carcinomas (SCCs); format: in vivo
Experimental: The combination therapy of polyamine biosynthesis/uptake inhibition was tested against the K6/ODC transgenic mouse murine squamous cell carcinoma (SCC) model recently described.^98 The K6/ODC model was developed to assess whether ODC overexpression was a contributing cause, or an effect of malignant transformation. […] While most skin tumorigenesis models yielded benign squamous papillomas as the predominant tumor type, when the K6/ODC transgene was expressed on the FVB/N strain background, the majority of tumors that developed were aggressive squamous cell carcinomas. These SCCs appeared as early as 5 weeks after treatment and in high multiplicities (up to four tumors per mouse), making this a very efficient model for SCC induction. Using this model, we were thus able to conclude that over-expression of ODC is a sufficient condition for tumor promotion in mouse skin.^99
We conducted an in vivo anti-tumor trial of DFMO combined with either the D-C16-acyl Lys-spm conjugate AMXT 1501 (FIG. 4) or the L-C16-alkyl AMXT 1569 analog (FIG. 5) in the K6/ODC SCC model.
The concentration of AMXT 1501 was 14 μg/ml, or an average daily dose of ˜50-65 μg (equivalent to ˜3 mg/kg/d). […] It is expected that great improvements in the oral bioavailability of AMXT 1501 would result from insightful drug formulation.

[2] = target: CXCR4 receptor (Homo sapiens, UniProt P61073); assay: binding of radiolabeled SDF-1α to the CXCR4 receptor; conditions: 10 μM
Sequence of CXCR4 receptor (P61073 whole entry): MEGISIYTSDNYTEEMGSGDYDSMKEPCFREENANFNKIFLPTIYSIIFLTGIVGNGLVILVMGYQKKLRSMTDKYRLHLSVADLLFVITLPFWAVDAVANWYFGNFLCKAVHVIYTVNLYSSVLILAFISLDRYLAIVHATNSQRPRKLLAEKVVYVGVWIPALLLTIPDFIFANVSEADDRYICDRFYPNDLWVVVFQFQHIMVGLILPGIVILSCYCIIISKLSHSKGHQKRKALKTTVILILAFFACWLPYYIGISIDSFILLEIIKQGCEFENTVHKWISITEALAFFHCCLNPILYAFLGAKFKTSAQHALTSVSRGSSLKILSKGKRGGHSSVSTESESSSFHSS
Experimental: Alternative mechanisms might also be responsible for the observed immune inducing effects of PBT. The FDA-approved compound, plerixafor (also known as AMD3100), is used as a hematopoietic stem cell mobilizer for use in combination with granulocyte-colony stimulating factor (G-CSF) for peripheral blood collection and subsequent autologous transplantation in patients with non-Hodgkin's lymphoma and multiple myeloma. […] We tested the effect of 10 μM AMXT 1501 on the binding of radiolabeled SDF-1α to the CXCR4 receptor and found no inhibition. […] Since an interaction between AMXT 1501 and the CXCR4 receptor was not observed, a polyamine-dependant mechanism of immune-suppression is maintained.

[3] = target: human TLR 2 (Homo sapiens, UniProt O60603); assay: Toll-Like Receptor (TLR) screening assay, TLR2; format: cell-based; conditions: 10 μM; control HKLM
Sequence of human TLR 2 (O60603 21-784): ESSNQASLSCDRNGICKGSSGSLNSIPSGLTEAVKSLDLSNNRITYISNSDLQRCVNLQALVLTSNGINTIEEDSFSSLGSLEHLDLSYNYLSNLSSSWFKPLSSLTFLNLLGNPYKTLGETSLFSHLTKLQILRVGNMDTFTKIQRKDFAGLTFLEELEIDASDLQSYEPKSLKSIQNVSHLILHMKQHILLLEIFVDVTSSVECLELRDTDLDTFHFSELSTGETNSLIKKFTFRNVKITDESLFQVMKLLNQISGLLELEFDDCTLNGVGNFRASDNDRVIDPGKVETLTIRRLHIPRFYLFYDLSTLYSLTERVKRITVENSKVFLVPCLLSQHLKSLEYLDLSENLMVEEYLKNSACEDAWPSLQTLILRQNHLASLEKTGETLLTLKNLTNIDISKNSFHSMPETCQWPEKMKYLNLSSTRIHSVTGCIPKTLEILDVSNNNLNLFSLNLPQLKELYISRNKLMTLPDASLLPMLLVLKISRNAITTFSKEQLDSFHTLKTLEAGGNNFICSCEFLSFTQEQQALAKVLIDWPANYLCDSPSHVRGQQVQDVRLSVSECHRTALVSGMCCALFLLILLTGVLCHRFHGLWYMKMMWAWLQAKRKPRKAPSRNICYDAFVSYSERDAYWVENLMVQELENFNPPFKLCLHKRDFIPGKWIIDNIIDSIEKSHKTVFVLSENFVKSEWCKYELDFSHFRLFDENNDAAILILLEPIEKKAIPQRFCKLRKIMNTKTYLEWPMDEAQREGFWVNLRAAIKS

[4] = target: T1, human TLR7 (Homo sapiens, UniProt Q9NYK1); assay: Toll-Like Receptor (TLR) screening assay, TLR7; format: cell-based; conditions: 10 μM
T1 sequence (Q9NYK1 27-1049): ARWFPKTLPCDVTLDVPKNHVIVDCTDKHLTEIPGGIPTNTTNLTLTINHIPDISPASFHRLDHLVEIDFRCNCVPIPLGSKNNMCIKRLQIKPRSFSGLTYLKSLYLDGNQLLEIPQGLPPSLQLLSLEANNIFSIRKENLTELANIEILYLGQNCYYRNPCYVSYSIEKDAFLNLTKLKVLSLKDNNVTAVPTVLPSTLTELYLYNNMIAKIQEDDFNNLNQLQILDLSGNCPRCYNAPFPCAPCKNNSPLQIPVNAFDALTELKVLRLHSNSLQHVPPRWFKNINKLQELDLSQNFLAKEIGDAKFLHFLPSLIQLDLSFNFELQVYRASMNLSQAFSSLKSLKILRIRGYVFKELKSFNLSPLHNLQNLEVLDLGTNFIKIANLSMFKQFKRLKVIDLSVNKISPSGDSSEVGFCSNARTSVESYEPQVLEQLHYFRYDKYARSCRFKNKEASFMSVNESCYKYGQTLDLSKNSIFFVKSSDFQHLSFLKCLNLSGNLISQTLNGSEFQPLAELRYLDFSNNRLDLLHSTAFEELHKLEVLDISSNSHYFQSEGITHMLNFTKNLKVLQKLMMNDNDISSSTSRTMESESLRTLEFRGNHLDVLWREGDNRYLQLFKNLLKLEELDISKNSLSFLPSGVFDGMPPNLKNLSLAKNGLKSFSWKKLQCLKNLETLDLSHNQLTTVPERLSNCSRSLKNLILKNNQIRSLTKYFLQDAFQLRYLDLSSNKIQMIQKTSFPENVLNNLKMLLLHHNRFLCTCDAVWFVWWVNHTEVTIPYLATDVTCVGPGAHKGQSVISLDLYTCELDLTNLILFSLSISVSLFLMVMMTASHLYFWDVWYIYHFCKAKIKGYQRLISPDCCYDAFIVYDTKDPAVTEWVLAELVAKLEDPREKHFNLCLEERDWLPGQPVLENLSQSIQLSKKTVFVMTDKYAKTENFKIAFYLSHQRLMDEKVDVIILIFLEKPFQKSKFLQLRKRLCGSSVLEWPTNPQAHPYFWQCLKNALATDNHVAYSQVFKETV

[5] = target: T2, human TLR9 (Homo sapiens, UniProt Q9NR96); assay: Toll-Like Receptor (TLR) screening assay, TLR9; format: cell-based; conditions: 10 μM
T2 sequence (Q9NR96 26-1032): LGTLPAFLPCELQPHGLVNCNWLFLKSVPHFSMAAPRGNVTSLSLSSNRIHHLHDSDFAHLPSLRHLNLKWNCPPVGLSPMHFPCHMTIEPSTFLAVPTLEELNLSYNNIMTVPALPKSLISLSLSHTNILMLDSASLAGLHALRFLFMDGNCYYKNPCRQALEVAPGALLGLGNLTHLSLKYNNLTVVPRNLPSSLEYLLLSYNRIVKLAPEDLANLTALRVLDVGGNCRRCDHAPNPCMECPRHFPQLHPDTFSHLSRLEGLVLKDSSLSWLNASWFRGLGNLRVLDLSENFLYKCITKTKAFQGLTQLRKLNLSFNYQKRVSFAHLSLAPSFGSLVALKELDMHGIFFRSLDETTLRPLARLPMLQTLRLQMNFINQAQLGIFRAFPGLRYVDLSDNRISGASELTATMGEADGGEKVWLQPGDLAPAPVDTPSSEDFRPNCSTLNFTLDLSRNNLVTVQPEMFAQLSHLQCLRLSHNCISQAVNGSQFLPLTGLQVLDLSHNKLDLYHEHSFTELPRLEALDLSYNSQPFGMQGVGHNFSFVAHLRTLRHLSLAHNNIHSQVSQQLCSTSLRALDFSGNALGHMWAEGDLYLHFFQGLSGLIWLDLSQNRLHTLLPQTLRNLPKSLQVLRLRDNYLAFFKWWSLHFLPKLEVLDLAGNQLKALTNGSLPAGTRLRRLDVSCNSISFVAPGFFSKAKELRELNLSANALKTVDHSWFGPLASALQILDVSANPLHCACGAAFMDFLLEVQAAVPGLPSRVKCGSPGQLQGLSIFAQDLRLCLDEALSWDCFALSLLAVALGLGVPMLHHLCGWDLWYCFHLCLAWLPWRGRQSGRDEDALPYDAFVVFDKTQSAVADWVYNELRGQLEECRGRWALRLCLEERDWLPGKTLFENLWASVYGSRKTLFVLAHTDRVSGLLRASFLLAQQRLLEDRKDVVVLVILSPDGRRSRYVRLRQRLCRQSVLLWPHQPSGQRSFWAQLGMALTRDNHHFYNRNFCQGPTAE

## CCCCCCCCCCCCCCCC(=O)NCCCC[C@@H](N)C(=O)NCCCNCCCCNCCCN [AMXT 1501, D-Lys(C16acyl)-Spm]
[1]; agent alone
  anti-tumor response to single agent: did not reduce tumor growth
[1]; combined with DFMO
  potency to inhibit tumor growth in combination with DFMO, AMXT 1501 versus AMXT 1569: slightly better results
[2]
  inhibition of radiolabeled SDF-1α binding: no inhibition
[3]
  stimulatory effect on TLR2: 19 % of control
[4]
  activity on TLR7: no significant activity
[5]
  activity on TLR9: no significant activity
